Assay results published in patent US20140371210A1, “METHODS AND COMPOSITIONS FOR RAPID TRANSBUCCAL DELIVERY OF ACTIVE AGENTS” (Jaleva Pharmaceuticals, LLC, priority 2011, published 2014).
Where two headings read alike, the source gives them in different places.

Legend:
[1] = cited from earlier work

SMILES	cytoprotective effect of resin composition (human cells)	logD ([1]; pH 7.4)	logD ([1]; pH 5.5)
Cc1nnc2n1-c1ccc(Cl)cc1C(c1ccccc1)=NC2 [alprazolam]	cytoprotective effect has been shown	–	–
O=C(O)Cc1ccccc1Nc1c(Cl)cccc1Cl [diclofenac]	cytoprotective effect has been shown	–	–
CC[C@H]1OC(=O)[C@H](C)[C@@H](O[C@H]2C[C@@](C)(OC)[C@@H](O)[C@H](C)O2)[C@H](C)[C@@H](O[C@@H]2O[C@H](C)C[C@H](N(C)C)[C@H]2O)[C@](C)(O)C[C@@H](C)C(=O)[C@H](C)[C@@H](O)[C@]1(C)O [erythromycin]	cytoprotective effect has been shown	–	–
CC(C)Cc1ccc(C(C)C(=O)O)cc1 (stereo not shown) [ibuprofen]	cytoprotective effect has been shown	–	–
CNS(=O)(=O)CCc1ccc2[nH]cc(C3CCN(C)CC3)c2c1 [naratriptan]	–	−0.85	–
CN1CCCC1c1cccnc1 (stereo not shown) [nicotine]	cytoprotective effect has been shown	−0.62	–
Cc1nccn1CC1CCc2c(c3ccccc3n2C)C1=O (stereo not shown) [ondansetron]	cytoprotective effect has been shown	1.2	–
CCCc1nn(C)c2c(=O)[nH]c(-c3cc(S(=O)(=O)N4CCN(C)CC4)ccc3OCC)nc12 [sildenafil]	–	2.26	1.83
CCCc1nc(C)c2c(=O)[nH]c(-c3cc(S(=O)(=O)N4CCN(CC)CC4)ccc3OCC)nn12 [vardenafil]	–	3.71	2.26
